Experimental data: patent US20230150920A1, “SALTS AND SOLID FORMS OF 4-BROMO-2,5-DIMETHOXYPHENETHYLAMINE” (priority 2021, published 2023)
“Also recorded” adds a separate entry of the source. Like-named read-outs stand apart in the source and are kept apart here.

Experiments:
[1] = Dynamic vapor sorption/desorption (DVS), hygroscopicity; format: physicochemical; settings: for Hygroscopicity: grade in words, from DVS; for Water uptake (5-85% RH) %: 5-85% RH part of sorption; for Water uptake (85-95% RH) %: 85-95% RH part of sorption; for Water uptake (5-95% RH) %: total
Description: The active pharmaceutical ingredient (API), 4-bromo-2,5-dimethoxyphenethylamine hydrochloride, is characterized to evaluate its physical properties. The evaluation is performed by X-ray powder diffraction (XRPD), polarized light microscopy (PLM), differential scanning calorimetry (DSC), thermogravimetry (TG), dynamic vapor sorption/desorption (DVS), and/or solubility testing in organic solvents, water, and mixed solvent systems. XRPD data are used to assess crystallinity. PLM data are used to evaluate crystallinity and particle size/morphology. DSC data are used to evaluate melting point, thermal stability, and crystalline form conversion. TG data are used to evaluate if the API is a solvate or hydrate, and to evaluate thermal stability. DVS data are used to evaluate hygroscopicity of the API and if hydrates can be formed at high relative humidity.
The form characterized in FIGS. 1 and 2 is designated as Form A herein. […] A sharp endotherm at 238° C. in the DSC thermogram is attributed to melting.

[2] = Dynamic vapor sorption (DVS) with XRPD of the post-DVS sample; format: physicochemical; settings: for hygroscopicity based on DVS data / moisture gain by DVS / moisture gain by DVS, equivalent moles of water: 25° C.; for hygroscopicity based on DVS data: 5 to 95% RH; for moisture gain by DVS / moisture gain by DVS, equivalent moles of water: adsorption 5 to 95% RH; for post-DVS XRPD result: XRPD of the post-DVS sample; for DVS desorption weight loss, 85-5% RH: desorption 85-5% RH; for DVS desorption weight loss, 95-85% RH: desorption 95-85% RH; for behaviour on desorption / form change by XRPD of post-DVS sample: desorption 95 to 5% RH; for DVS sorption weight gain, 5-85% RH: sorption 5-85% RH; for DVS sorption weight gain, 85-95% RH: sorption 85-95% RH; for DVS desorption weight loss, 95-5% RH: desorption 95-5% RH; for DVS sorption weight gain, 5-95% RH: sorption 5-95% RH
Description: Dynamic Vapor Sorption (DVS) analysis was carried out using a TA Instruments Q5000 Dynamic Vapor Sorption analyzer. The instrument was calibrated with standard weights and a sodium bromide standard for humidity. Approximately 10-25 mg of sample was loaded into a metal-coated quartz pan for analysis. The sample was analyzed at 25° C. with a maximum equilibration time of one hour in 10% relative humidity (RH) steps from 5 to 95% RH (adsorption cycle) and from 95 to 5% RH (desorption cycle). The movement from one step to the next occurred either after satisfying the equilibrium criterion of 0.01% weight change or, if the equilibrium criterion was not met, after one hour. The percent weight change values were calculated using Microsoft Excel.
(§1) The DVS analysis was carried out using a TA Instruments Q5000 Dynamic Vapor Sorption analyzer. 13.5 mg of sample was loaded into a metal-coated quartz pan for analysis. After equilibration to 5% relative humidity (RH), the sample was analyzed at 25° C. in 10% RH steps from 5 to 95% RH (adsorption cycle) and from 95 to 5% RH (desorption cycle). The movement from one step to the next occurred either after satisfying the equilibrium criterion of 0.01% weight change in 5 minutes or, if the equilibrium criterion was not met, after 90 minutes. The percent weight change values are calculated using Microsoft Excel®.
as §1, with “DVS analyses were” for “DVS analysis was”, “analyzer. Approximately 7-11” for “analyzer. 13.5”, “equilibration at” for “equilibration to”, “values were” for “values are”
as §1, with “analyzer. Approximately 2” for “analyzer. 13.5”, “equilibration at” for “equilibration to”, “values were” for “values are”

[3] = Deliquescence at 75% RH at ambient temperature; format: physicochemical
[4] = Slurry
Description: The sample was then centrifuged, while still warm, and the mother liquor was decanted. The isolated solids were air-dried and analyzed by XRPD.

[5] = several days at 75% RH at ambient temperature

Compound: COc1cc(CCN)c(OC)cc1Br.CS(=O)(=O)O [Mesylate, 2C-B mesylate]
- Hygroscopicity: weight gain ([1]; <85% RH): RH: 2.7%
- Hygroscopicity: weight gain ([1]; >85% RH): RH: 4.5% gain
- Hygroscopicity [1]: Hygroscopic; <85%
- hygroscopicity based on DVS data [2]: hygroscopic
- moisture gain by DVS [2]: 7.2%
- moisture gain by DVS, equivalent moles of water [2]: approximately 1.5 moles
- post-DVS XRPD result [2]: Consistent with Mesylate
- DVS desorption weight loss, 85-5% RH [2]: 85-5% RH: 3.0% loss
- DVS desorption weight loss, 95-85% RH [2]: 95-85% RH: 4.4% loss
- behaviour on desorption / form change by XRPD of post-DVS sample [2]: form change is not apparent by XRPD
- DVS desorption total loss [2]: Total loss: 7.4%
- DVS sorption weight gain, 5-85% RH [2]: 5-85% RH: 2.7% gain
- DVS sorption weight gain, 85-95% RH [2]: 85-95% RH: 4.5% gain
- DVS sorption total gain [2]: Total gain: 7.2%
- deliquescence ([3]; at 75% RH): Did not deliquesce
- deliquescence [3, 5]: not observed

Compound: COc1cc(CCN)c(OC)cc1Br.O=S(=O)(O)O [Sulfate, 2C-B sulfate]
- Water uptake (5-85% RH) % [1]: 0.8%
- Water uptake (85-95% RH) % [1]: (5-85), 1.4 (85-95) %
- Hygroscopicity: weight gain ([1]; <85% RH): RH: 0.8%
- Hygroscopicity: weight gain ([1]; >85% RH): RH: 1.4%
- Hygroscopicity [1]: Slightly
- Water uptake (5-95% RH) % ([1]; 5-95% RH): 2.2%
- hygroscopicity based on DVS data [2]: slightly hygroscopic
- moisture gain by DVS [2]: 2.2%
- moisture gain by DVS, equivalent moles of water [2]: approximately 0.5 moles
- post-DVS XRPD result [2]: Consistent with Sulfate
- DVS desorption weight loss, 85-5% RH [2]: 85-5% RH: 0.8% loss
- DVS desorption weight loss, 95-85% RH [2]: 95-85% RH: 1.3% loss
- behaviour on desorption / form change by XRPD of post-DVS sample [2]: form change does not occur
- DVS desorption total loss [2]: Total loss: 2.1%
- DVS sorption weight gain, 5-85% RH [2]: 5-85% RH: 0.8% gain
- DVS sorption weight gain, 85-95% RH [2]: 85-95% RH: 1.4% gain
- DVS sorption total gain [2]: Total gain: 2.2%
- deliquescence ([3]; at 75% RH): Did not deliquesce
- deliquescence [3, 5]: not observed

Compound: 2C-B glycolate
- Water uptake (5-85% RH) % [1]: 0.9%
- Water uptake (85-95% RH) % [1]: (5-85), 2.7 (85-95) %
- Hygroscopicity: weight gain ([1]; <85% RH): RH: 0.9%
- Hygroscopicity: weight gain ([1]; >85% RH): RH: 2.7% gain
- Hygroscopicity [1]: Mod. hygroscopic; <85%
- Water uptake (5-95% RH) % ([1]; 5-95% RH): 3.6%
- hygroscopicity based on DVS data [2]: moderately hygroscopic
- moisture gain by DVS [2]: 3.6%
- moisture gain by DVS, equivalent moles of water [2]: 0.7 mol
- post-DVS XRPD result [2]: Consistent with Glycolate
- moisture gain by DVS above 85% RH ([2]; above 85% RH): 2.7%
- DVS desorption weight loss, 85-5% RH [2]: 85-5% RH: 1.1% loss
- DVS desorption weight loss, 95-85% RH [2]: 95-85% RH: 2.6% loss
- behaviour on desorption / form change by XRPD of post-DVS sample [2]: form change is not apparent by XRPD
- DVS desorption total loss [2]: Total loss: 3.7%
- DVS sorption weight gain, 5-85% RH [2]: 5-85% RH: 0.9% gain
- DVS sorption weight gain, 85-95% RH [2]: 85-95% RH: 2.7% gain
- DVS sorption total gain [2]: Total gain: 3.6%
- deliquescence ([3]; at 75% RH): Did not deliquesce
- deliquescence [3, 5]: not observed

Compound: COc1cc(CCN)c(OC)cc1Br.O=S(=O)(O)c1ccccc1 [Besylate (Form 1), 2C-B besylate]
- Hygroscopicity: weight gain ([1]; 5-95% RH): 5-95% RH: 0.7%
- Hygroscopicity [1]: Slightly
- hygroscopicity based on DVS data [2]: slightly hygroscopic
- moisture gain by DVS [2]: 0.7%
- moisture gain by DVS, equivalent moles of water [2]: 0.2 mol
- post-DVS XRPD result [2]: Consistent with Besylate (Form 1)
- DVS desorption weight loss, 95-5% RH [2]: 95-5% RH: 0.7% loss
- behaviour on desorption / form change by XRPD of post-DVS sample [2]: does not undergo form conversion
- DVS sorption weight gain, 5-95% RH [2]: 5-95% RH: 0.7% gain
- deliquescence ([3]; at 75% RH): Did not deliquesce
- deliquescence [3, 5]: not observed

Compound: COc1cc(CCN)c(OC)cc1Br.O=C(O)c1cc(O)ccc1O [Gentisate, 2C-B gentisate]
- Hygroscopicity: weight gain ([1]; 5-95% RH): 5-95% RH: 0.2%
- Hygroscopicity [1]: Non-hygroscopic;
- Water uptake (5-95% RH) % ([1]; 5-95% RH): 0.20%
- hygroscopicity based on DVS data [2]: non-hygroscopic
- moisture gain by DVS [2]: 0.2%
- moisture gain by DVS, equivalent moles of water [2]: 0.05 mol
- post-DVS XRPD result [2]: Crystalline, consistent
- DVS desorption weight loss, 95-5% RH [2]: 95-5% RH: 0.2% loss
- behaviour on desorption / form change by XRPD of post-DVS sample [2]: form change does not occur
- DVS sorption weight gain, 5-95% RH [2]: 5-95% RH: 0.2% gain
- deliquescence ([3]; at 75% RH): Did not deliquesce
- deliquescence [3, 5]: not observed; also recorded: does not deliquesce

Compound: COc1cc(CCN)c(OC)cc1Br.O=C(O)C(O)C(O)C(=O)O [2C-B tartrate, 4-bromo-2,5-dimethoxyphenethylamine (2C-B) tartrate]
- XRPD result after slurry ([4]; ACN, 50° C., 9 days): Tartrate (Form 1)
- XRPD result after slurry ([4]; DMF/acetone 50/50, RT): Tartrate (Form 1)
- XRPD result after slurry ([4]; EtOAc, 50° C., 9 days): Tartrate (Form 1)
- XRPD result after slurry ([4]; EtOAc/DMSO 71/29, RT): Tartrate (Form 1) +
- XRPD result after slurry ([4]; EtOH, 50° C., 9 days): Tartrate (Form 1)
- XRPD result after slurry ([4]; EtOH/H2O 50/50, aw = 0.89, RT): Tartrate (Form 1)
- XRPD result after slurry ([4]; EtOH/H2O 80/20, aw = 0.70, RT): Tartrate (Form 1)
- XRPD result after slurry ([4]; EtOH/H2O 90/10, aw = 0.49, RT): Tartrate (Form 1)
- XRPD result after slurry ([4]; IPA, 50° C., 9 days): Tartrate (Form 1)
- XRPD result after slurry ([4]; IPA/H2O 70/30, aw = 0.94, RT): Tartrate (Form 1)
- XRPD result after slurry ([4]; MEK, 50° C., 9 days): Tartrate (Form 1)
- XRPD result after slurry ([4]; MeOH, RT): Tartrate (Form 1)
- XRPD result after slurry ([4]; MeOH/H2O 95/5, aw = 0.16, RT): Tartrate (Form 1)
- XRPD result after slurry ([4]; THF/H2O 50/50, aw = 1.00, 5° C.): Tartrate (Form 1)
- XRPD result after slurry ([4]; acetone/H2O 50/50, aw = 0.91, 5° C.): Tartrate (Form 1)

Compound: COc1cc(CCN)c(OC)cc1Br.O=C(O)C(O)C(O)C(=O)O [Tartrate (Form 1), 4-bromo-2,5-dimethoxyphenethylamine (2C-B) tartrate]
- Hygroscopicity: weight gain ([1]; 5-95% RH): 5-95% RH: 0.1%
- Hygroscopicity [1]: Non-hygroscopic;
- Water uptake (5-95% RH) % ([1]; 5-95% RH): 0.1%
- hygroscopicity based on DVS data [2]: non-hygroscopic
- moisture gain by DVS [2]: 0.1%
- post-DVS XRPD result [2]: Crystalline, consistent
- DVS desorption weight loss, 95-5% RH [2]: 95-5% RH: 0.1% loss
- behaviour on desorption / form change by XRPD of post-DVS sample [2]: Form change does not occur
- DVS sorption weight gain, 5-95% RH [2]: 5-95% RH: 0.1% gain
- deliquescence ([3]; at 75% RH): Did not deliquesce
- deliquescence [3, 5]: not observed; also recorded: does not deliquesce

Compound: COc1cc(CCN)c(OC)cc1Br.O=C(O)CC(O)(CC(=O)O)C(=O)O [Citrate (Form 2), 2C-B Citrate]
- Hygroscopicity: weight gain ([1]; 5-95% RH): 5-95% RH: 0.5%
- Hygroscopicity [1]: Slightly
- hygroscopicity based on DVS data [2]: slightly hygroscopic
- moisture gain by DVS [2]: 0.5%
- moisture gain by DVS, equivalent moles of water [2]: 0.1 mol
- post-DVS XRPD result [2]: Consistent with Citrate (Form 2)
- DVS desorption weight loss, 95-5% RH [2]: 95-5% RH: 0.5% loss
- behaviour on desorption / form change by XRPD of post-DVS sample [2]: form change does not occur
- DVS sorption weight gain, 5-95% RH [2]: 5-95% RH: 0.5% gain
- deliquescence ([3]; at 75% RH): Did not deliquesce
- deliquescence [3, 5]: not observed
